Data taken from publication PMC7997411, “Discovery and Optimization of Selective Inhibitors of Meprin α (Part II)” (Pharmaceuticals, 2021).

Legend:
MMP1 = target: T1, MMP1 (Homo sapiens, UniProt P03956); assay: MMP assay (fluorogenic substrate ES010); format: biochemical
T1 construct: purchased R&D Systems 901-MP
T1 sequence (P03956 100-469): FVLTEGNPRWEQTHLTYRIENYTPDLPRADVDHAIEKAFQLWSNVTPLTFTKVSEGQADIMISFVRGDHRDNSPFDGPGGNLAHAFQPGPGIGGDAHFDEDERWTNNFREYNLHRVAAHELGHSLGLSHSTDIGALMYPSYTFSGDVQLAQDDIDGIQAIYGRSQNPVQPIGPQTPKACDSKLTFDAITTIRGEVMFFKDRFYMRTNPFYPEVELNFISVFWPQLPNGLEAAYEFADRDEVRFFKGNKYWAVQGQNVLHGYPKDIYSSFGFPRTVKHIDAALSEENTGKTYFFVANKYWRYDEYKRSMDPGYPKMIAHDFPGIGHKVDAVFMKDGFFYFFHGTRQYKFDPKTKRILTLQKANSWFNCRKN
Experimental: (§1) MMP-1, MMP-2, MMP-8, MMP-9, MMP-10, MMP-13, MMP-14, ADAM10, ADAM17 and Mca-KPLGL-Dpa-AR-NH2 fluorogenic peptide substrate were purchased from R&D Systems (cat # 901-MP, 902-MP, 908-MP, 911-MP, 910-MP, 511-MM, 918-MP, 936-AD, 930-ADB, and ES010, respectively). All common chemicals were purchased from Sigma. NFF449 was purchased from Tocris (cat# 1391) and actinonin was from Sigma-Aldrich, St. Louis, MO, USA (cat# 01809).
(§2) All assays followed the same general protocol. 5 µL of 2× enzyme solution (5 nM) in assay buffer (50 mM Tricine, 50 mM NaCl, 10 mM CaCl2, 0.05% Brij-35, pH 7.5) were added to solid-bottom black 384 plates (Nunc, cat# 264705). Next, test compounds and pharmacological controls were added to corresponding wells using a 384-pin tool device (V&P Scientific, San Diego). After 30 min incubation at RT, the reactions were started by addition of 5 µL of 2× solutions of MMP substrate (R&D Systems cat#: ES010, 20 µM). Reactions were incubated at RT for 1 h, after which the fluorescence was measured using the Synergy H4 multimode microplate reader (Biotek Instruments) (λexcitation = 324 nm, λemission = 390 nm). All compounds were tested in 10-point, 1:3 serial dilutions dose-response format starting with highest concentration of 100 µM. IC50 values were determined using non-linear regression analysis using the GraphPad Prism 8.0 suite of programs.

MMP10 = target: T2, MMP10 (Homo sapiens, UniProt P09238); assay: MMP assay (fluorogenic substrate ES010); format: biochemical
T2 construct: purchased R&D Systems 910-MP
T2 sequence (P09238 99-476): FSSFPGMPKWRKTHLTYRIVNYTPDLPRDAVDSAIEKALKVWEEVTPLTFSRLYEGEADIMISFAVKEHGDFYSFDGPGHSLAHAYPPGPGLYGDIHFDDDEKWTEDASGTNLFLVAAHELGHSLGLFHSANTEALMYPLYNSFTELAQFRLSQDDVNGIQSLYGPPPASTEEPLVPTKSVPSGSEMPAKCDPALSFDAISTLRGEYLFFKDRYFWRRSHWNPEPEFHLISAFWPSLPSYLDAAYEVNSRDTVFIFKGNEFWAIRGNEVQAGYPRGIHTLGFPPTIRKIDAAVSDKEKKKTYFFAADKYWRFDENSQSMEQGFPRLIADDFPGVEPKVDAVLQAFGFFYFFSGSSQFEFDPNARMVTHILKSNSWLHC
Experimental: as §1, §2

[1] = test system: HEK293 (kidney) and BJ (skin fibroblasts) cells; assay: Cytotoxicity, CellTox Green assay; format: cell-based
Experimental: Figure 6 Characterization of SR24717 for effects on cell viability and cytotoxicity. (A) Effect of SR24717 on viability of WM266-4 (skin melanoma), HEK293 (kidney), and BJ (skin fibroblasts) cells. CellTiter Glo™ assay (Promega) was used after 72 h treatment. (B) Effect of SR24717 on viability of HEK293 (kidney) and BJ (skin fibroblasts) cells. The CellTox Green™ assay (Promega) was used. All experiments performed as 10-point 3-fold concentration-response curves in triplicate.

MMP3 = MMP3 (Homo sapiens, UniProt P08254); assay: MMP assay (fluorogenic substrate ES010); format: biochemical
Chain of MMP3 (P08254 100-477, species assumed): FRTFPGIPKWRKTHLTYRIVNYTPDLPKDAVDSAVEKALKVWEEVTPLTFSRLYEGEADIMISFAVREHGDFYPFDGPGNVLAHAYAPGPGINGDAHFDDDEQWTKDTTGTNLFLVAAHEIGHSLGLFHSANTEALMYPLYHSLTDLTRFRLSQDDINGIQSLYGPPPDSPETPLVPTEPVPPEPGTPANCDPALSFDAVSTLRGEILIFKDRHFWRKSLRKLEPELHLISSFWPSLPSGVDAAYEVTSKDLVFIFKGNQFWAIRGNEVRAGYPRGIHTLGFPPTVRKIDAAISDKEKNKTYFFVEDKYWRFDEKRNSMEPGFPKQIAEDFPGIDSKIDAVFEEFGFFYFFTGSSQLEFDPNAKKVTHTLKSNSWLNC
Experimental: as §2

Compound | IC50 (MMP1) | IC50 (MMP10) | concentration at which cytotoxicity was observed [1] | IC50 (MMP3)
CCCCC[C@H](CC(=O)NO)C(=O)N[C@H](C(=O)N1CCC[C@H]1CO)C(C)C [Actinonin, actinonin, reference compound] | 0.1 µM | – | – | –
COc1cc(OC)nc(SCc2nnc(SCC(=O)NO)n2-c2ccc(N(C)C)cc2)n1 [SR24717] | – | > 100 µM | 100 µM | > 100 µM
